According to patent US20050113371A1, “Antifungal agent for topical use” (priority 2002, published 2005):
Where two headings read alike, the source gives them in different places.

Legend:
[1] = system: Trichophyton mentagrophytes; assay: Antifungal activity on Sabouraud agar medium, MIC and FIC index (Test Examples 1 and 2); format: cell-based; details: for MIC: Trichophyton mentagrophytes, 168 h, read-out: Minimum inhibitory concentration (MIC); for FIC index obtained by the combination of amorolfine hydrochloride with another medicine: Test Example 1, amorolfine hydrochloride + medicine at mass ratio 1:1
Method: (§1) Amorolfine hydrochloride and each specimen (hereinafter referred to as “medicine”) at a mass ratio of 1:1 were dissolved in dimethyl sulfoxide (DMSO). Two-fold dilution series were prepared with DMSO. In the determination of the antifungal activity, the medicine and the medium were mixed together at a ratio of 1:99.
(§2) Sabouraud agar medium (Eiken) was used as a susceptibility determination medium. A microbe suspension containing 10^6 spores/mL of Candida albicans or about 10^6 conidia/mL of ringworm fungus was prepared. 5 μl of the suspension was inoculated on the Sabouraud agar medium containing the medicine with a micro-planter (a product of Sakuma Seisakusho). Candida albicans was cultured for 2 days and the tinea was cultured for 7 days. […]

Trichophyton rubrum = assay: as above; format: cell-based; details: for MIC: Trichophyton rubrum, 168 h, read-out: Minimum inhibitory concentration (MIC); for FIC index obtained by the combination of amorolfine hydrochloride with another medicine: Test Example 1, amorolfine hydrochloride + medicine at mass ratio 1:1
Method: as §1, §2

Candida albicans = assay: as above; format: cell-based; details: for MIC: Candida albicans, 48 h, read-out: Minimum inhibitory concentration (MIC); for FIC index obtained by the combination of amorolfine hydrochloride with another medicine: Test Example 1, amorolfine hydrochloride + medicine at mass ratio 1:1
Method: as §1
(§3) Sabouraud agar medium (Eiken) was used as a susceptibility determination medium. A microbe suspension containing 10^6 spores/mL of Candida albicans or about 10^6 conidia/mL of ringworm fungus was prepared. 5 μl of the suspension was inoculated on the Sabouraud agar medium containing the medicine with a micro-planter (a product of Sakuma Seisakusho). Candida albicans was cultured for 2 days and the tinea was cultured for 7 days.
The effect obtained by the combination was judged on the basis of the following standards (FIC index): • >2: antagonism • 2>and 1<: additive action • 1>: potentiation
(1) Amorolfine hydrochloride and each specimen (hereinafter referred to as “medicine”) at a mass ratio of 100:1 to 1:100 were dissolved in dimethyl sulfoxide (DMSO). Two-fold dilution series were prepared with DMSO. In the determination of the antifungal activity, the medicine and the medium were mixed together at a ratio of 1:99.
(2) Amorolfine hydrochloride and each specimen (hereinafter referred to as “medicine”) at a mass ratio of 1:3 to 3:1 were dissolved in dimethyl sulfoxide (DMSO). Two-fold dilution series were prepared with DMSO. In the determination of the antifungal activity, the medicine and the medium were mixed together at a ratio of 1:99.
as §3, with “conidia/mL of each of two kinds of ringworm fungus” for “conidia/mL of ringworm fungus”, “agar medium with a” for “agar medium containing the medicine with a”, “and the Tinea fungus was cultured” for “and the tinea was cultured”

[2] = system: Trichophyton mentagrophytes TIMM 1189; assay: Tinea infection model of guinea pigs, culture test (Test Example 3); format: in vivo; details: 0.75 mass % in polyethylene glycol 400 (combination 1:2), 0.1 mL once a day for 5 days from 3 days after inoculation; culture on 5th day after last application; 10 loci
Method: Amorolfine hydrochloride and each specimen (hereinafter referred to as “medicine”) at a mass ratio of 1:2 were dissolved in polyethylene glycol 400 to obtain a final concentration of 0.75% mass ratio. Each of amorolfine hydrochloride and the medicines was separately dissolved in polyethylene glycol 400 to obtain solutions having the final concentration of 0.75 mass %.
Male Hartley guinea pigs (Japan SLC Co., Ltd.; 6 weeks) were used. In the course of the test, they were kept separately from one another in an isolator (Negative rack, CLEA JAPAN, Inc.). They could freely have a solid food (G standard, Nihon Nosan Kogyo KK) and water.
Trichophyton mentagrophytes TIMM 1189 was cultured on slant Sabouraud glucose agar medium at 27° C. for 14 days. Then, sterilized saline containing 0.05% of Tween 80 was added thereto to obtain conidia. The resultant suspension was filtered through a cell strainer (FALCON Co., Ltd.) to remove large mycelian masses. The number of conidia was counted with hemocytometer. The conidia were diluted to 4×10^7/mL with sterilized saline containing 0.05% of Tween 80 to obtain the conidial suspension for inoculation.
The back of each guinea pig was shaved. Then, a circular inoculation part having a diameter of 2 cm was positioned on both sides of the spinal column. A gummed tape was applied thereto and then peeled. These steps was repeated three times, whereby the hair was pulled out of the skin in both parts and, at the same time, the top of the corneous layer of the skin was peeled off. The remaining hair was completely removed with tweezers. […]
When at least one of the 10 small pieces taken from one inoculated locus of the skin was the positive after the culture, the inoculated locus was judged to be positive. The ratio of positive loci after culture was calculated from the number of the cultured positive pieces in the total 10 inoculated loci in each experiment group.
The number of the cultured positive small pieces in the inoculated portion was scored as will be described below to determine the infection. […]

[3] = rats, oral; administration from before the pregnancy to the lactation period or perinatal period/lactation period; cited from earlier work
[4] = cited from earlier work
[5] = cited from earlier work; remark: listed apart in the source
[6] = cited from earlier work; remark: listed apart in the source
Candida = details: cited from earlier work
[7] = in vivo; cited from earlier work
[8] = rabbit, in vivo; cited from earlier work
[9] = Test Example 2, geometric mean MIC of two strains, cultured 7 days

Question: Which results are given for `CCC(C)(C)c1ccc(CC(C)CN2CC(C)OC(C)C2)cc1.Cl` (racemic) [amorolfine hydrochloride, (±)-cis-2,6-dimethyl-4-[3-[4-(1,1-dimethylpropyl)phenyl]-2-methylpropyl]-morpholine monohydrochloride]?
Answer: MIC [1]: 0.031 µg/mL; MIC (Trichophyton rubrum): 0.016 µg/mL; MIC (Candida albicans): 1 µg/mL; rate of positive loci after culture [2]: 100%; dose with an influence on the survival rate of newborn babies [3]: at least 10 mg/kg/day; LD50 ([4]; mice, intraperitoneal injection, female): 239 mg/kg; LD50 ([4]; mice, intraperitoneal injection, male): 205 mg/kg; LD50 ([4]; mice, intravenous injection, female): 112 mg/kg; LD50 ([4]; mice, intravenous injection, male): 141 mg/kg; LD50 ([4]; mice, oral, female): 2406 mg/kg; LD50 ([4]; mice, oral, male): 2514 mg/kg; LD50 ([4]; mice, subcutaneous, male and female): > 5000 mg/kg; LD50 ([5]; rats, intraperitoneal injection, female): 465 mg/kg; LD50 ([5]; rats, intraperitoneal injection, male): 468 mg/kg; LD50 ([5]; rats, oral, female): 1756 mg/kg; LD50 ([5]; rats, oral, male): 1960 mg/kg; LD50 ([5]; rats, subcutaneous, male and female): > 2000 mg/kg; LD50 ([6]; dogs, oral, male and female): > 1000 mg/kg; LD50 ([6]; dogs, subcutaneous, male): > 2500 mg/kg

Question: Which results are given for `Cc1cc(C2CCCCC2)n(O)c(=O)c1.NCCO` [Ciclopyrox olamine]?
Answer: FIC index obtained by the combination of amorolfine hydrochloride with another medicine ([1]; cultured 7 days): 1.0; FIC index obtained by the combination of amorolfine hydrochloride with another medicine (Trichophyton rubrum; cultured 7 days): 1.0; FIC index obtained by the combination of amorolfine hydrochloride with another medicine (Candida albicans; cultured 2 days): 0.38

Question: For `N#C/C(=C1/SCC(c2ccccc2Cl)S1)n1ccnc1` (centres unmarked) [Lanoconazole], which “FIC index obtained by the combination of amorolfine hydrochloride with another medicine” value (“FIC index obtained by the combination” below) ([1]; cultured 7 days) is on record?
Answer: 1.00

Question: What about the “FIC index obtained by the combination” value (Trichophyton rubrum; cultured 7 days) of the same compound?
Answer: 1.25

Question: And the “FIC index obtained by the combination” value (Candida albicans; cultured 2 days)?
Answer: 0.53

Question: Which “FIC index obtained by the combination” value ([1]; cultured 7 days) does the source give for `Cc1cccc(N(C)C(=S)Oc2ccc3ccccc3c2)c1` [Tolnaftate] here?
Answer: 1.25

Question: What about the “FIC index obtained by the combination” value (Trichophyton rubrum; cultured 7 days) of the same compound?
Answer: 0.35

Question: What about the “FIC index obtained by the combination” value (Candida albicans; cultured 2 days) of the same compound?
Answer: 0.38

Question: Which “FIC index obtained by the combination” value ([1]; cultured 7 days) does the source give for `CN(Cc1ccc(C(C)(C)C)cc1)Cc1cccc2ccccc12.Cl` [butenafine hydrochloride, N-4-tert-butylbenzyl-N-methyl-1-naphthalenemethylamine hydrochloride] here?
Answer: 0.49

Question: What about the MIC [1, 9] of the same compound?
Answer: 0.016 µg/mL

Question: And the “FIC index obtained by the combination” value (Trichophyton rubrum; cultured 7 days)?
Answer: 0.38

Question: What about the MIC (Trichophyton rubrum; [9]) of the same compound?
Answer: 0.004 µg/mL

Question: And the MIC (Candida albicans; Test Example 2, geometric mean MIC of two strains, cultured 2 days)?
Answer: > 8 µg/mL

Question: And the “FIC index obtained by the combination” value (Candida albicans; cultured 2 days)?
Answer: 0.38

Question: And the “Minimum inhibitory concentration (MIC)” value (Candida albicans; Test Example 2, geometric mean MIC of two strains, cultured 2 days, listed as B, hydrochloride)?
Answer: >8.0 µg/mL

Question: What about the “rate of positive loci after culture” value [2] of the same compound?
Answer: 100%

Question: And the “antifungal effect on Candida” value (Candida)?
Answer: ineffective

Question: And the LD50 ([4]; ICR male and female mice, intravenous injection)?
Answer: > 140 mg/kg

Question: And the LD50 ([4]; ICR male and female mice, oral)?
Answer: > 5000 mg/kg

Question: What about the LD50 ([4]; ICR male and female mice, percutaneous) of the same compound?
Answer: > 800 mg/kg

Question: And the LD50 ([4]; ICR male and female mice, subcutaneous)?
Answer: > 200 mg/kg

Question: What about the LD50 ([5]; Wistar rats, intravenous injection, female) of the same compound?
Answer: ≥ 100 mg/kg

Question: And the LD50 ([5]; Wistar rats, intravenous injection, male)?
Answer: > 100 mg/kg

Question: And the LD50 ([5]; Wistar rats, oral, male and female)?
Answer: > 4000 mg/kg

Question: And the LD50 ([5]; Wistar rats, percutaneous, male and female)?
Answer: > 1000 mg/kg

Question: What about the LD50 ([5]; Wistar rats, subcutaneous, male and female) of the same compound?
Answer: > 150 mg/kg

Question: What about the LD50 ([6]; Beagle dogs, male, oral) of the same compound?
Answer: > 5000 mg/kg

Question: And the LD50 ([6]; Beagle dogs, male, percutaneous)?
Answer: > 100 mg/kg

Question: What about the “toxicity on the reproduction or development” value [7] of the same compound?
Answer: No toxicity was found

Question: And the localized irritation [8]?
Answer: weak
